# The source made the active and inactive calls. No cut-off for these calls is given here.
# Key:
# A549 [1] = assay: Antiproliferative activity against human A549 cells assessed as inhibition of cell growth measured after 72 hrs by CCK-8 method; format: functional, cell-based
# [2] = biological target: T1, Protein cereblon/Histone deacetylase 8 (Homo sapiens) (UniProt Q9BY41+Q96SW2); assay: Protac activity at CRBN/HDAC8 in human A549 cells assessed as reduction in HDAC8 protein level by Western blot analysis; format: cell-based; settings: dose 0.2-10 µM
# T1 sequence (Q96SW2 whole entry, looked up): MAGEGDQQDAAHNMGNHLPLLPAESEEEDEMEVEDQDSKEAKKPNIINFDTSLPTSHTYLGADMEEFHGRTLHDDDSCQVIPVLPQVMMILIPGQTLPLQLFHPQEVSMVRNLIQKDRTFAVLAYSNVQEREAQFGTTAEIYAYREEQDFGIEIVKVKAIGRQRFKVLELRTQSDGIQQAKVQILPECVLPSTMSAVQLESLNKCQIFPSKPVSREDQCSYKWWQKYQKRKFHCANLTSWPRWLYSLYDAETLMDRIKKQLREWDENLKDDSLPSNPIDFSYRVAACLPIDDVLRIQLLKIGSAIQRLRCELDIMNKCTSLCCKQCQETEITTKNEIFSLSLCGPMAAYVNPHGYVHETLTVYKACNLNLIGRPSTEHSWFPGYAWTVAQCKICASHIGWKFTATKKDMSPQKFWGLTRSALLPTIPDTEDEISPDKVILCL
# T1 sequence (Q9BY41 whole entry, looked up): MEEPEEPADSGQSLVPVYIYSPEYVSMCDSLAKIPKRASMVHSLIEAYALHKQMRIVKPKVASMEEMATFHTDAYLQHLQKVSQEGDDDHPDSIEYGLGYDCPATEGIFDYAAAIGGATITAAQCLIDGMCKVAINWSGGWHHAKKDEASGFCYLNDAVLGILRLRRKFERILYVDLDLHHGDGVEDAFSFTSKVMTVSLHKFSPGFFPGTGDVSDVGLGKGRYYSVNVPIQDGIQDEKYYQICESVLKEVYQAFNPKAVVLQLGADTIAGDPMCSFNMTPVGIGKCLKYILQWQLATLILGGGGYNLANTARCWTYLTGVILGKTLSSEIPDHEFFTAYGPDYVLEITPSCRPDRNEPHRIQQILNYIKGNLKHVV
# A549 [3] = assay: Effect on MAFK gene in human A549 cells at 10 uM measured after 20 hrs by RNA sequencing analysis; format: functional, cell-based
# A549 [4] = assay: Induction of apoptosis in human A549 cells assessed as early apoptotic cells at 5 uM incubated for 72 hrs by annexin V-FITC staining based flow cytometry (reference value: 0.099%); format: functional
# A549 [5] = assay: Induction of apoptosis in human A549 cells assessed as necrotic cells at 5 uM by annexin V-FITC staining based flow cytometry (reference value: 0%); format: functional
# A549 [6] = assay: Induction of apoptosis in human A549 cells assessed as late apoptotic cells at 20 uM incubated for 72 hrs by annexin V-FITC staining based flow cytometry (reference value: 0.048%); format: functional
# A549 [7] = assay: Induction of apoptosis in human A549 cells assessed as early apoptotic cells at 10 uM incubated for 72 hrs by annexin V-FITC staining based flow cytometry (reference value: 0.099%); format: functional
# [8] = biological target: T1, Protein cereblon/Histone deacetylase 8 (Homo sapiens); assay: Protac activity at CRBN/HDAC8 in human HeLa cells assessed as reduction in HDAC8 protein level at 0.1 to 10 uM by Western blot analysis; format: cell-based; settings: dose 0.1-10 µM
# [9] = biological target: T1, Protein cereblon/Histone deacetylase 8 (Homo sapiens); assay: Protac activity at CRBN/HDAC8 in human A549 cells assessed as decrease in PGM1 expression at 0.1 to 10 uM under glucose deprivation condition by Western blot analysis; format: cell-based; settings: dose 0.1-10 µM
# A549 [10] = assay: Induction of apoptosis in human A549 cells assessed as early apoptotic cells at 20 uM incubated for 72 hrs by annexin V-FITC staining based flow cytometry (reference value: 0.099%); format: functional
# A549 [11] = assay: Inhibition of DNA damage repair in human A549 cells assessed as reduction in Ku70 protein level at 5 uM incubated for 24 hrs by immunofluorescence staining based analysis; format: functional, cell-based
# [12] = biological target: T1, Protein cereblon/Histone deacetylase 8 (Homo sapiens); assay: Protac activity at CRBN/HDAC8 in human A549 cells assessed as maximum degradation at 10 uM incubated for 20 hrs by ELISA method relative to control; format: cell-based
# A549 [13] = assay: Induction of apoptosis in human A549 cells assessed as late apoptotic cells at 5 uM incubated with compound followed by irradiation by annexin V-FITC staining based flow cytometry (reference value: 3.07%); format: functional
# [14] = biological target: T1, Protein cereblon/Histone deacetylase 8 (Homo sapiens); assay: Protac activity at CRBN/HDAC8 in human A549 cells assessed as reduction in HDAC8 protein level at 10 uM by Western blot analysis relative to control; format: cell-based; design: scale not given: the % may be the effect or the level left
# A549 [15] = assay: Induction of apoptosis in human A549 cells assessed as downregulation of PCNA level at 1.25 to 20 uM measured after 48 hrs by Western blot analysis; format: functional, cell-based; settings: dose 1.25-20 µM
# A549 [16] = assay: Induction of apoptosis in human A549 cells assessed as upregulation of cleaved caspase-3 level measured after 48 hrs by Western blot analysis; format: functional, cell-based; settings: dose 1.25-20 µM
# [17] = biological target: Protein cereblon/Histone deacetylase 9 (Homo sapiens) (UniProt Q9UKV0+Q96SW2); assay: Protac activity at CRBN/HDAC9 in human A549 cells assessed as reduction in HDAC9 protein level at 0.1 to 10 uM by Western blot analysis; format: cell-based; settings: dose 0.1-10 µM
# Protein cereblon/Histone deacetylase 9 (Homo sapiens), sequence (Q96SW2 whole entry, looked up): as the sequence (Q96SW2 whole entry, looked up) above
# Protein cereblon/Histone deacetylase 9 (Homo sapiens), sequence (Q9UKV0 whole entry, looked up): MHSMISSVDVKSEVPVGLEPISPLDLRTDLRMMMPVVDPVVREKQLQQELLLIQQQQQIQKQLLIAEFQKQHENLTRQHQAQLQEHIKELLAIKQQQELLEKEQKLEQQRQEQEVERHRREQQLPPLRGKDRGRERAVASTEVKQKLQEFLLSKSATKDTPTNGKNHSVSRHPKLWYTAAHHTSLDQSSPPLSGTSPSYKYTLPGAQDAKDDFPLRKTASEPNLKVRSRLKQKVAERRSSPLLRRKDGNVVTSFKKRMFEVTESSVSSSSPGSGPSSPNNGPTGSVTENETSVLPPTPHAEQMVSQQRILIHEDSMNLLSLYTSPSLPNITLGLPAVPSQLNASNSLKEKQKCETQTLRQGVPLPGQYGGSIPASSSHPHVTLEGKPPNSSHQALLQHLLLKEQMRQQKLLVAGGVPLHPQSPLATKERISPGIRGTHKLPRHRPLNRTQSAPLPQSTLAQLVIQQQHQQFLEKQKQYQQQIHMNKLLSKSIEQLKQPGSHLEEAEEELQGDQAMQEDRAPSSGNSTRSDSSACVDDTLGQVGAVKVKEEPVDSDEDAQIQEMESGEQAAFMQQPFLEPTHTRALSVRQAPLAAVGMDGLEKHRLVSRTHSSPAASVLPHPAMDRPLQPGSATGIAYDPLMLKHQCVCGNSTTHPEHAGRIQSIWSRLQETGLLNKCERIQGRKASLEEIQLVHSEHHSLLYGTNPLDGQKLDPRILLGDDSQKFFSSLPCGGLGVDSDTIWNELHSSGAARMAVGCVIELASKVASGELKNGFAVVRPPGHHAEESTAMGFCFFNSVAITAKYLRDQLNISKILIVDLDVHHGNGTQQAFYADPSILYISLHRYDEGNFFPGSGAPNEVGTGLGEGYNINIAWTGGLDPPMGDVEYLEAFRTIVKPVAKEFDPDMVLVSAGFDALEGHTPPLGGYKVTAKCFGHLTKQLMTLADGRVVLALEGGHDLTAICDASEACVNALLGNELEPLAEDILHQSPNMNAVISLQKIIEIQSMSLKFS
# A549 [18] = assay: Antitumor activity against human A549 cells xenografted in NOD/SCID mouse assessed as decrease in HDAC8 expression at 5 mg/kg, ip administered every 5 days measured at day 30 under irradiation condition by […] analysis; format: functional, organism-based; settings: time 30.0 day
# A549 [19] = assay: Effect on DKK1 gene in human A549 cells at 10 uM measured after 20 hrs by RNA sequencing analysis; format: functional, cell-based
# [20] = biological target: Protein cereblon/Histone deacetylase 1 (Homo sapiens) (UniProt Q13547+Q96SW2); assay: Protac activity at CRBN/HDAC1 in human A549 cells assessed as reduction in HDAC1 protein level at 0.1 to 10 uM by Western blot analysis; format: cell-based; settings: dose 0.1-10 µM
# Protein cereblon/Histone deacetylase 1 (Homo sapiens), sequence (Q13547 whole entry, looked up): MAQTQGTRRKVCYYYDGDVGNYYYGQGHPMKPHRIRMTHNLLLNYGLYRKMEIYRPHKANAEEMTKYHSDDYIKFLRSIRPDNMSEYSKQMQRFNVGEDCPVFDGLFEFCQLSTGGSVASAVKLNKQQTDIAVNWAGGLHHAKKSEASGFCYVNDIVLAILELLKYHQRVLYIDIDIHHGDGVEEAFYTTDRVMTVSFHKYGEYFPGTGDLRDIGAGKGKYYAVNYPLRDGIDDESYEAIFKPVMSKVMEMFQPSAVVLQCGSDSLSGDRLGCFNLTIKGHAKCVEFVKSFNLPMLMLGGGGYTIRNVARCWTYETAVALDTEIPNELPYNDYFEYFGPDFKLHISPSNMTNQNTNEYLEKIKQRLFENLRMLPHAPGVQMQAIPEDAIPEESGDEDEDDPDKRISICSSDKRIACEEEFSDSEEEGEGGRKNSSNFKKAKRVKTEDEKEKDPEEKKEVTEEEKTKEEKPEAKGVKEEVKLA
# Protein cereblon/Histone deacetylase 1 (Homo sapiens), sequence (Q96SW2 whole entry, looked up): as the sequence (Q96SW2 whole entry, looked up) above
# [21] = biological target: T1, Protein cereblon/Histone deacetylase 8 (Homo sapiens); assay: Protac activity at CRBN/HDAC8 in human A549 cells assessed as degradation of HDAC8 at 2 uM measured after 20 hrs by Western blot analysis relative to control; format: cell-based
# A549 [22] = assay: Induction of apoptosis in human A549 cells assessed as late apoptotic cells at 5 uM incubated for 72 hrs by annexin V-FITC staining based flow cytometry (reference value: 0.048%); format: functional
# [23] = Toxicity in NOD/SCID mouse xenografted with human A549 cells assessed as change in body weight loss at 5 mg/kg, ip administered every 5 days measured at day 30; format: organism-based; settings: in vivo, 720 h, time 30 day
# A549 [24] = assay: Downregulation of ABHD6 in human A549 cells measured after 20 hrs by proteomic analysis; format: functional, cell-based
# HCT-116 [25] = assay: Induction of apoptosis in human HCT-116 cells assessed as necrotic cells at 5 uM incubated for 48 hrs by annexin V FITC and propidium iodide based flow cytometry relative to control; format: functional
# A549 [26] = assay: Induction of apoptosis in human A549 cells assessed as late apoptotic cells at 10 uM incubated for 72 hrs by annexin V-FITC staining based flow cytometry (reference value: 0.048%); format: functional
# [27] = biological target: T1, Protein cereblon/Histone deacetylase 8 (Homo sapiens); assay: Protac activity at CRBN/HDAC8 in human A549 cells assessed as reduction in HDAC8 protein levels at 10 uM measured after 18 hrs by Western blot analysis relative to control; format: cell-based; design: scale not given: the % may be the effect or the level left
# A549 [28] = assay: Effect on HDAC8 mRNA level in human A549 cells at 10 uM measured after 20 hrs by RNA sequencing analysis; format: functional, cell-based
# A549 [29] = assay: Induction of apoptosis in human A549 cells assessed as necrotic cells at 5 uM incubated with compound followed by irradiation by annexin V-FITC staining based flow cytometry (reference value: 2.02%); format: functional
# A549 [30] = assay: Induction of cell cycle arrest in human A549 cells assessed as accumulation of cells at G2/M phase at 20 uM measured after 72 hrs by propidium iodide staining based flow cytometry analysis; format: functional
# A549 [31] = assay: Downregulation of COMMD1 in human A549 cells measured after 20 hrs by proteomic analysis; format: functional, cell-based
# A549 [32] = assay: Effect on ARPIN gene in human A549 cells at 10 uM measured after 20 hrs by RNA sequencing analysis; format: functional, cell-based
# A549 [33] = assay: Induction of apoptosis in human A549 cells assessed as viable cells at 1.25 uM incubated for 72 hrs by annexin V-FITC staining based flow cytometry (reference value: 99.9%); format: functional; settings: read-out: Activity
# A549 [34] = assay: Induction of apoptosis in human A549 cells assessed as early apoptotic cells at 1.25 uM incubated for 72 hrs by annexin V-FITC staining based flow cytometry (reference value: 0.099%); format: functional
# HCT-116 [35] = assay: Inhibition of colony formation in SiRNA mediated HDAC8 knockdown human HCT-116 cells assessed as decrease in cell proliferation at 2.5 to 10 uM measured after 7 to 10 days with media replenishment along with compound for every 3 days by crystal violet staining based analysis; format: functional; settings: dose 2.5-10 µM, time 7-10 day
smiles,measurement,setting,value
O=C1CCC(N2C(=O)c3cccc(NCc4cn(CCOCCOc5ccc(Cn6ccc7ccc(C(=O)NO)cc76)cc5)nn4)c3C2=O)C(=O)N1 (stereo unspecified),IC50,"A549 [1]; A549, 72 h",9.55 µM
same,Activity,A549 [1]; dose <= 1.5 µM,Dose-Dependent Effect
same,Activity,[2],Dose-Dependent Effect
same,Activity,A549 [3],Active
same,Activity,A549 [4],21.6%
same,Activity,A549 [5],2.37%
same,Activity,A549 [6],22.7%
same,Activity,A549 [7],23.5%
same,Activity,[8],Active
same,Activity,[9],Active
same,Activity,A549 [10],70.4%
same,inhibition,A549 [11],Active
same,Emax,[12],> 95%
same,Activity,A549 [13],0.3%
same,Activity,[14],> 90%
same,Activity,A549 [15],Active
same,Activity,A549 [16],Dose-Dependent Effect
same,Activity,[17],inactive
same,Activity,A549 [18],Active
same,Activity,A549 [19],Active
same,Activity,[20],inactive
same,Activity,[21],85.4%
same,Activity,A549 [22],21.8%
same,Activity,[23],Non-Toxic
same,Activity,A549 [24],Active
same,Activity,HCT-116 [25],10%
same,Activity,A549 [26],22.2%
same,Activity,[27],100%
same,Activity,A549 [28],inactive
same,Activity,A549 [29],0.75%
same,Activity,A549 [30],inactive
same,Activity,A549 [31],Active
same,Activity,A549 [32],Active
same,viability at 1.25 µM,A549 [33],68.2%
same,Activity,A549 [34],24.2%
same,inhibition,HCT-116 [35],Active

# — ChEMBL document CHEMBL5316263, “Structure-Based Discovery of Selective Histone Deacetylase 8 Degraders with Potent Anticancer Activity” (J Med Chem, 2023)
